{"source": "patent US20160296658A1", "about": "“NOVEL ACTIVE INGREDIENT IN CICATRIZATION AND USE THEREOF” (LABORATOIRES URGO, priority 2007, published 2016)", "system": "normal human dermal fibroblasts (NHDF) R9PF2", "assay": "NHDF proliferation by incorporation of tritiated thymidine", "format": "cell-based", "settings": "dilution in culture medium at 0.011 mg/mL; 48 hours", "experimental": "Type: pool of normal human dermal fibroblasts (NHDF) R9PF2\nDMEM (Dulbecco's Modified Eagle Medium, Invitrogen 21969035)\nDressings having the size of the wells, prepared as described previously using the elastomeric masses of examples 1 to 5, and also dilutions of the Sepinov EMT 10 copolymer to 0.011 mg/mL and of potassium sucrose octasulfate to 0.00064 mg/mL, were tested.\nEffects on Proliferation:\nThe fibroblasts were seeded into 12-well plates at low density (60% confluence), and then the cells were treated with the dilutions or pieces of dressings were applied to these plates and kept in place by means of a plug (called “test”). A control without dressing, without dilution but with plug was carried out (called “control”).\nThe cells were then incubated for 24 hours, 48 hours and 72 hours. For each incubation time, tritiated thymidine ([methyl-3H]-thymidine, Amersham TRK 686 2.5 μCi/mL final concentration) was added for the final 24 hours of incubation and then the DNA of the cells of the cell layers was extracted and purified and the radioactivity incorporated into the DNA was counted using a scintillation counter.\nThe results obtained are expressed as counts per minute (cpm), then as percentage relative to the control according to the following formula:\n%control=(Cpmtest/cmpcontrol)×100 […]"}
{"smiles": "O=S(=O)([O-])OC[C@H]1O[C@@](COS(=O)(=O)[O-])(O[C@H]2O[C@H](COS(=O)(=O)[O-])[C@@H](OS(=O)(=O)[O-])[C@H](OS(=O)(=O)[O-])[C@H]2OS(=O)(=O)[O-])[C@@H](OS(=O)(=O)[O-])[C@@H]1OS(=O)(=O)[O-].[K+].[K+].[K+].[K+].[K+].[K+].[K+].[K+]", "note": "[Potassium sucrose octasulfate, potassium sucrose octasulfate]", "values": [{"measurement": "NHDF proliferation, % control", "result": 106, "unit": "% control"}]}
